The source of these data is patent US5462861A, “Method for improving enzyme activities with noble gases” (American Air Liquide, Chicago Research Center, priority 1993, dated 1995).

Experiment [1] concerns β-D-Glucosidase. As to the kind of experiment: High pressure experiments, β-D-glucosidase. Format: biochemical, Almonds. The protocol: Experiments were conducted in pressure cells pressurized with additional test gas after solution was already saturated, at 2 atmospheres or at 3 atmospheres in real-time, or after pressurizing in a 1-liter cylinder for 1 hour or ~24 hours at 30.6 atmospheres and at 100 atmospheres.
Rinse the cylinders with copious quantities of D.I. H2 O. Then rinse the cylinders with the second enzyme solution (glucosidase). Place a 25 ml aliquot of enzyme solution into each of 2 disposable gas cylinders. Shake the enzyme in each cylinder for several minutes and then remove a 5 ml sample for Control B and Control C.
Remove cylinders to the dock, gassing with the appropriate gas; bring pressure slowly up to 30.6 atm. Let sit at the required pressure for 60 minutes. Slowly depressurize to 2 psi before bringing into the lab.
Bring the cylinders back to the dock and repressurize to 100 atm with the appropriate gas. Let sit at the required pressure for 60 minutes. Slowly depressurize to 2 psi before bringing into the lab.
Cuvettes were filled for the 2 atm experiments for both enzymes. Each cuvette was gassed 10×10 cc with the appropriate gas and refrigerated for 15 minutes prior to running. Serum vials were filled with 5 cc of the corresponding enzyme and gassed with 10×10 cc of the appropriate gas prior to running. The spectrophotometers were set up such that a continuous flow of each gas could be delivered to each spectro at all times. A 100 psimax gauge was installed to read the cuvette pressure and 2 on/off valves were installed so that the reference cell could be pressurized during the second replicate. A ball valve was installed between the cylinder/house line and the gauge so that gas flow could be controlled directly at the spectrophotometers. A check valve was placed in each line to ensure that a back pressure would not cause contamination of the house lines or the gas cylinders. The cuvettes retained the 2 needles during the entire run. One of the needles was attached to the gas line while the second was used for enzyme introduction and then plugged. Due to the bulky nature of the assembly it was impossible to use the installed doors of the spectrophotometers therefore they were removed. A 4-layer thick black felt cover was prepared for each spectro to minimize the amount of light entering the system.
While the cuvette was equilibrating to temperature in the spectrophotometer both needles remained in the cuvette with 10 cc syringes still attached. Prior to enzyme introduction one of the syringes was removed while the gas line was attached to the needle. A small flow of gas run through the line while this was done to ensure that there was no oxygen contamination. The needles remained above the liquid level. The second syringe was removed to allow constant flow through the cuvette. The enzyme was injected through the second needle using a 1 cc syringe. The needle was then plugged, the cuvette pressurized and the run begun.
A nonpressurized gas run using all four gases was done for each enzyme. Each cuvette was gassed with 10×10 cc of the corresponding gas and refrigerated for 15 minutes. The 2 needles used for gassing the cuvettes were removed when the cuvettes were placed into the spectrophotometer. Enzyme was introduced into the cuvettes using a 1 cc syringe with a 20G11/2 needle attached. The needle was placed into the cuvette through the silicone plug but not immersed into the liquid. This was to ensure that enzyme introduction into the cuvette was the same as for the pressurized gas run.
The same method as used in Trial 2 on Apr. 30, 1991 was used for this trial.
At 3 atmospheres pressure, the degree of enhancement observed was changed as follows: […]

For experiment [2], the target named is Triosephosphate isomerase (Homo sapiens, UniProt P60174). As to the kind of experiment: Triosephosphate isomerase activity under gas. Format: biochemical. The protocol: (§1) Solution preparation: Optimized w/v solutions are prepared by diluting the enzyme (units/ml) and the substrate (μg/ml) in appropriate buffer (optimized pH and molarity for enzymes). The solutions are used for gas experiments at once to avoid loss of activity. Various enzyme and substrate concentrations and inhibitors may be employed. Physical parameters are varied as required.
Triosephosphate isomerase, sequence (P60174 2-249 limits assumed, species assumed): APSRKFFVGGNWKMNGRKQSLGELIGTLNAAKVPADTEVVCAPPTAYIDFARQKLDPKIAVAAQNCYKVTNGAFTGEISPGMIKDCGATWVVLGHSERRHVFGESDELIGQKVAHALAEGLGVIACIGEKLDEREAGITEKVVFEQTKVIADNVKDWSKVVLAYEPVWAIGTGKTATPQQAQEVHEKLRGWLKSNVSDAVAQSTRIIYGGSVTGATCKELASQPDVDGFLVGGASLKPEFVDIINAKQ
(§2) Preparation of samples: Cuvets are filled with 2 ml of substrate solution by means of a gas-tight syringe. Gas-tight serum vials are filled with enzyme and solvent. Sufficient gas is consecutively bubbled in the cuvets and serum vials, with a 1-hr wait between injections to maximize equilibration of gas. All syringes and dead spaces are purged before filling with the appropriate gas. The amount of gas used has been measured sufficient to saturate the solution required.
(§3) Spectrophotometric time-drive, reaction rate, and kinetic analyses: cuvets and serum vials are saturated with gas 40 minutes before the run. A gas-filled syringe is used to retrieve 0.5 ml of enzyme solution to avoid air contact. The 0.5 ml syringe injections of enzyme are made simultaneously to effect a common starting time to for the samples. 7 gases (air, O2, N2, Ne, Ar, Kr, Xe) are run at various temperatures each (from 0° to 60° ). Changes in the rate or final equilibrium of the reaction versus ambient air are recorded. Comparison is also made with added oxygen, and with deoxygenation. Some samples are also prepared under pressure.
(§4) In a complete experiment, an enzyme at optimal pH and buffering salt concentration is reacted with 5 substrate concentrations in solution with noble gas at 1 atm. […] Controls are also run after evacuation of solution by vacuum. The reaction is monitored colorimetrically in a scanning spectrophotometer in real time, and the signals are treated mathematically to obtain rate and yield differences. Sample numbers are constant and sufficient to ensure significance of results. All parameters are independently controlled and measured, and more complex experiments are occasionally carried out.

Experiment [3] concerns the target T1, citrate synthetase (Homo sapiens, UniProt O75390).
T1 sequence (O75390 28-466): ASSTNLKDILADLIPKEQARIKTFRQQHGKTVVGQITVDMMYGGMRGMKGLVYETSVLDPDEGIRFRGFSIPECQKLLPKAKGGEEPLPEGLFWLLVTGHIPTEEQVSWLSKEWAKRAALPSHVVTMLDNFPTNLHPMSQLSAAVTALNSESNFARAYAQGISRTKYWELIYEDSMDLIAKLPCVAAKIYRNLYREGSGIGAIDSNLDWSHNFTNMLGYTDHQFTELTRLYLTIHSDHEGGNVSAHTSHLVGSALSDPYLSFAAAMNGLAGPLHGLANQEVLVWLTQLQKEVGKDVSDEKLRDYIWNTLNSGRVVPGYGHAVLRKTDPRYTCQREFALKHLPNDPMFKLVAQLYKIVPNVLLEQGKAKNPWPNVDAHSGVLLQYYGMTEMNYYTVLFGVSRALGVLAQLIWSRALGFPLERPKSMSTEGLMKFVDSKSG
As to the kind of experiment: Citrate synthetase complex reaction under gas. Format: biochemical. The conditions noted are these: for effect on citrate synthase: FIG. 33. Here is the method: as §1, §2, §3, §4

For experiment [4], the target named is Phosphoglucose isomerase (Homo sapiens, UniProt P06744). As to the kind of experiment: Phosphoglucose isomerase activity under gas. Format: biochemical. The conditions noted are these: for effect: phosphoglucose isomerase; for effect, stressed: stressed = nonoptimal substrate concentration or temperature. Here is the method: as §1, §2, §3, §4
Experiment [5] has as its system Beta-D-glucosidase. As to the kind of experiment: Beta-D-glucosidase activity under gas. The conditions noted are these: for effect: plus = enhancement. Type of experiment: biochemical. The protocol:
as §1, §2, §3, §4

Experiment [6] concerns phenylalanine ammonia lyase. As to the kind of experiment: Phenylalanine ammonia lyase activity under gas. Format: biochemical. The conditions noted are these: for effect on phenylalanine ammonia lyase: head not printed; for effect on phenylalanine ammonia-lyase: FIG. 32. Here is the method:
as §1, §2, §3, §4

The subject of experiment [7] is tyrosinase. As to the kind of experiment: Oxygen addition experiment, tyrosinase. Format: biochemical. Here is the method:
as §4

Setting [8] is: at 3 atmospheres pressure (value after the > sign), minus = inhibition.
The mark [9] stands for this setting: before pressurization (value before the > sign).
Setting [10] is: optimized enzyme concentration, first value column.
Where [11] appears, read: optimized enzyme concentration, second value column.
Setting [12] is: optimized enzyme concentration, third value column.
Where [13] appears, read: suboptimal enzyme concen., first value column.
The mark [14] stands for this setting: suboptimal enzyme concen., second value column.
Where [15] appears, read: suboptimal enzyme concen., third value column.
[16] abbreviates: after addition of oxygen up to a saturating amount to the gas-saturated solution.
[17] abbreviates: gas-saturated solution before addition of oxygen.

A word on the inhibition: it is the drop in the measured response relative to a control, in per cent.

With `[Kr]` [Kr, krypton], the “degree of enhancement observed” value is on record as -6.2 in experiment [1] (setting [8]) and “+2.0” in experiment [1] (setting [9]). Moreover, the effect result in experiment [2] (10° C., plus = enhancement) was “+12%”; in experiment [4] it was “+206.4%”; in experiment [5], “+14%”. Further, the “effect on citrate synthetase complex reaction” value is reported as “+37” in experiment [3] (10° C.), “+6” in experiment [3] (25° C.) and “+32” in experiment [3] (35° C.). The “effect on citrate synthase” value in experiment [3] is on record as “enhancement”. In addition, the “effect on phosphoglucose isomerase” value in experiment [4] (10° C., FIG. 34) is “enhancement”. Further, the “effect on phenylalanine ammonia lyase” value in experiment [6] (setting [10]) is given as “+7”; in experiment [6] (setting [11]), “+4”; in experiment [6] (setting [12]), “+4”; in experiment [6] (setting [13]) it was “+3”; in experiment [6] (setting [14]) it was “+18”; in experiment [6] (setting [15]) it was “+14”.

For `[Ne]` [Ne, neon], the “degree of enhancement observed” value is reported as -12.5 in experiment [1] (setting [8]) and “+1.0” in experiment [1] (setting [9]). The effect entry in experiment [2] (10° C., plus = enhancement) is listed as “+4%”; in experiment [4], “+107%”. Moreover, the “effect on citrate synthetase complex reaction” value in experiment [3] (10° C.) is recorded as “+11”; in experiment [3] (25° C.) it was “+9”; in experiment [3] (35° C.), -14. In experiment [4] (25° C., FIG. 35), the “effect on phosphoglucose isomerase” value is “enhancement”. Moreover, in experiment [4], the “effect, stressed” value was -45%. In addition, the “effect on phenylalanine ammonia-lyase” value in experiment [6] is “enhancement”. For the same compound, the “effect on phenylalanine ammonia lyase” value in experiment [6] (setting [10]) was -2; in experiment [6] (setting [11]), “+6”; in experiment [6] (setting [12]) it was -6; in experiment [6] (setting [13]), “+15”; in experiment [6] (setting [14]), 0; in experiment [6] (setting [15]), “+6”.

`[Ar]` [Ar, argon]: the figures for the “degree of enhancement observed” value in experiment [1] (setting [8]) and in experiment [1] (setting [9]) were -13.2 and “+1.0”, respectively. The effect result was “+8%” in experiment [2] (10° C., plus = enhancement); -37% in experiment [2] (25° C., inhibition); “+232.5%” in experiment [4]; “+16%” in experiment [5]. In addition, the “effect on citrate synthetase complex reaction” value is on record as “+25” in experiment [3] (10° C.), -10 in experiment [3] (25° C.) and -15 in experiment [3] (35° C.). In experiment [3], the “effect on citrate synthase” value is given as “inhibition”. Further, the “effect on phosphoglucose isomerase” value in experiment [4] (10° C., FIG. 34) is reported as “enhancement”. Moreover, the inhibition is 12% in experiment [7] (setting [16]) and 82% in experiment [7] (setting [17]). For the same compound, the “effect on phenylalanine ammonia lyase” value in experiment [6] (setting [10]) is “+6”; in experiment [6] (setting [11]), “+1”; in experiment [6] (setting [12]) it was “+3”; in experiment [6] (setting [13]) it was -1; in experiment [6] (setting [14]), “+1”; in experiment [6] (setting [15]), “+6.5”.

Consider `[Xe]` [Xe, xenon], for which the figures for the “degree of enhancement observed” value in experiment [1] (setting [8]) and in experiment [1] (setting [9]) were -15.7 and “+3.1”, respectively. Also, the effect entry in experiment [2] (10° C., plus = enhancement) is “+24%”; in experiment [4], “+186%”; in experiment [5] it was “+40%”. Moreover, the “effect on citrate synthetase complex reaction” value in experiment [3] (10° C.) is given as “+18”; in experiment [3] (25° C.), 0; in experiment [3] (35° C.) it was “+32”. In experiment [3], the “effect on citrate synthase” value is “enhancement”. Besides, in experiment [4] (10° C., FIG. 34), the “effect on phosphoglucose isomerase” value is “enhancement”. In experiment [4], the “effect, stressed” value is reported as -61%. Also, the figures for the inhibition in experiment [7] (setting [16]) and in experiment [7] (setting [17]) were 50% and 85%, respectively. In addition, the enhancement entry in experiment [5] (with the addition of different competing substrates) was “up to 200%”. For the same compound, the “effect on phenylalanine ammonia lyase” value in experiment [6] (setting [10]) is on record as “+18”; in experiment [6] (setting [11]) it was “+3”; in experiment [6] (setting [12]), “+5”; in experiment [6] (setting [13]), “+14”; in experiment [6] (setting [14]), “+8”; in experiment [6] (setting [15]) it was “+11”.

For `N#N` [N2, nitrogen, reference compound], the “effect on β-glucosidase” value in experiment [1] (30 atm. pressure, FIG. 38) is “inhibitory effect”; in experiment [1] (100 atm. pressure, 25° C., FIG. 37), “inhibitory effect”. Further, the “degree of enhancement observed” value in experiment [1] (setting [8]) is on record as -5.0; in experiment [1] (setting [9]), 0. Besides, the entries for the “effect on citrate synthetase complex reaction” value in experiment [3] (10° C.), in experiment [3] (25° C.) and in experiment [3] (35° C.) were -6, -25 and -17, respectively. In addition, the “effect on phosphoglucose isomerase” value in experiment [4] (25° C., FIG. 35) was “enhancement”. In addition, the inhibition result in experiment [7] (setting [16]) is listed as “zero inhibition”; in experiment [7] (setting [17]) it was 84%. Moreover, the “effect on phenylalanine ammonia-lyase” value in experiment [6] is recorded as “enhancement”. For the same compound, the “effect on phenylalanine ammonia lyase” value in experiment [6] (setting [10]) is “+19”; in experiment [6] (setting [11]), 0; in experiment [6] (setting [12]), “+6”; in experiment [6] (setting [13]), 0; in experiment [6] (setting [14]) it was 0; in experiment [6] (setting [15]) it was “+12”.
